Measured values as given in PMC8280143, “A novel dephosphorylation targeting chimera selectively promoting tau removal in tauopathies” (Signal Transduction and Targeted Therapy, 2021).
Entries after “also recorded” stand apart in the source; their conditions may differ.

Legend:
[1] = system: brain-blood barrier (BBB); test: Brain-blood barrier penetration after tail vein delivery; type: in vivo; conditions: delivered through mouse tail vein; 10 mM; 2-month male C57BL/6 mice
Method: (§1) For 2-month male C57BL/6 mice, 10 mM FITC-labeled or unlabeled-DEPTAC were directly injected through the tail vein or lateral ventricle for the evaluation of BBB-penetrability. For 9-month 3×Tg AD mice or Tau368 (20–30 g body weight), unlabeled-DEPTAC (5 mM, 1 μL for each time) was delivered for once into the lateral ventricle through direct stereotaxic injection, or repeatedly administrated through guiding cannulas (RWD, Shenzhen, China) implanted into the lateral ventricle once every 3 days for a consecutive month to test its dephosphorylation efficiency. Mice were restricted in a custom designed device and stayed awake during drug administration, and sacrificed at 24 h post the single or last DEPTAC administration.

tau [2] = test: Tau Ser/Thr phosphorylation and ubiquitination in the presence of MG132; type: cell-based, rat
Method: Primary hippocampal neurons were prepared from E12–E15 days SD rat embryos. Briefly, pregnant rats were acutely executed, hippocampus was dissected on ice and gently minced in DME/F12 (Hyclone) then suspended in 0.125% (vol/vol) trypsin solution at 37 °C for 20 min. Enzymatic activity was stopped by fetal bovine serum. Neurons were initially kept in 10% FBS-containing DME/F12 for 4–6 h, and subsequently cultured in Neurobasal (Hyclone) with 2% B27, 1% glutamax and 1% penicillin–streptomycin (Thermo Fisher Scientific) in dishes pre-coated with 100 μg/mL poly-D-lysine. Serum was gradually removed by replacing half of the medium for each time within the following 2 days. […]
Cultured cells or hippocampus tissues were collected on ice, and homogenized with RIPA lysis buffer containing 50 mM Tris-HCl, 100 mM NaCl, 1% Triton X-100, 5 mM EDTA, and 1:100 PMSF, and then centrifuged at 12,000 × g for 20 min. […] Protein concentration was measured through BCA assays (Thermo Fisher). […] Blots were visualized using ECL luminol reagent (P0018FS, Beyotime), and quantified using ImageJ software.
For co-immunoprecipitation, cultured cells were lysed on ice with RIPA buffer for 10 min containing 1:100 PMSF. […] Immunoprecipitants were subsequently analyzed through Western blotting.

MAP2 = MAP2 level in primary neurons; type: cell-based
Method: (§2) Cultured cells or hippocampus tissues were collected on ice, and homogenized with RIPA lysis buffer containing 50 mM Tris-HCl, 100 mM NaCl, 1% Triton X-100, 5 mM EDTA, and 1:100 PMSF, and then centrifuged at 12,000 × g for 20 min. The supernatant was collected for the analysis of soluble proteins. In some experiments, the pellets were further incubated with 8% SDS buffer at 37 °C and then ultrasound for 60 times to reach a complete resuspension for the analysis of insoluble tau. Protein concentration was measured through BCA assays (Thermo Fisher). Equal amount of protein from each sample were separated in SDS-PAGE gels, and then transferred onto nitrocellulose or 0.22 μm polyvinylidene fluoride membranes (Merck Millipore). […] Blots were visualized using ECL luminol reagent (P0018FS, Beyotime), and quantified using ImageJ software.

tau [3] = test: Hippocampal phospho-tau and total tau in 3×Tg AD mice; type: in vivo, mouse; conditions: 9-month 3×Tg AD mice, 5 mM, 1 μL
Method: Mice weighting 20–30 g were anesthetized with 1% pentobarbital sodium (35 mg/kg), and fixed in a stereotaxic instrument (RWD). The scalp was sterilized with iodophors and 75% ethanol, and incised along the skull midline. Holes were drilled. Adeno-associated virus or DEPTAC was injected into the dorsal DG (posterior 1.9 mm, lateral ±1.1 mm from the bregma, ventral −2.0 from the skull) or lateral ventricle (posterior 0.22 mm, lateral ±1.0 mm from the bregma, ventral −2.5 from the skull), respectively, using an automatic microinjection system (World Precision Instruments, USA) at a rate of 0.05 μL/min. The needle syringe was left in place for 5 min before withdrawal. The skin was sutured and sterilized with iodophors. Mice were placed on thermos tank for analepsia.
as §1, §2

Tau368 mice = test: Morris water maze test; type: in vivo, mouse
Source text: Morris water maze tests began 3 days after the novel-object recognition tests. Briefly, mice were trained to find a hidden platform submerged under water in a Morris water maze (1.2 m in diameter) for five consecutive days with three trials per day. Visual cues outside the pool remained constant. In each trial, mice were pseudorandomly placed, facing the pool wall, in one of the three quadrants without platform and allowed to freely seek the hidden platform within 60 s. […] The traveling path of each mouse was recorded and analyzed online using an MWZ-100 video-tracking system (Techman, China). At day 6, each mouse was tested for 60 s in the water maze with the hidden platform removed. Videos were recorded using recorded and time of mice stayed in, and number of entries into the target quadrant previously place the platform were analyzed using MWZ-100 and ANY-maze video tracking system (Stoelting).

[4] = intracerebroventricular, once every 3 days for a consecutive month, *p < 0.05, n = 4
[5] = dox-treated Tau368 mice, day 6, platform removed, *p < 0.05

(1) YQQYQDATADEQG, originates from the porcine β-tubulin 422–434 for recognizing and binding tau proteins.[5],[6] (2) GSGS, a linker for increasing the flexibility of the peptide.[15] (3) KKVAVVRTPPKSP, for recruiting PP2A-Bα,[16] and (4) RRRRRRRR [DEPTAC, DEPhosphorylation TArgeting Chimera; 38 amino acid residues, C185H314N72O56]
brain-blood barrier (BBB) penetrating efficiency [1]: limited
tau phosphorylation at Ser/Thr residues (tau [2]): downregulation; also recorded: decreased
tau ubiquitination (tau [2]): upregulation; also recorded: upregulated
level of MAP2 (MAP2; Supplementary Fig. S3, specificity to tau): did not change
selectivity to tau proteins (MAP2; discussion): considerable selectivity to tau proteins
hippocampal phospho-tau, repeated delivery (tau [3]; [4]): significantly reduced
hippocampal total tau, repeated delivery (tau [3]; [4]): significantly reduced
hippocampal phospho-tau, delivered for once (tau [3]; once, n = 4): tended to decrease; also recorded: relatively limited
hippocampal total tau, delivered for once (tau [3]; once, n = 4): tended to decrease; also recorded: relatively limited
spatial learning and memory in control mice (Tau368 mice; control mice without human tau accumulation (NW)): only limitedly affected; also recorded: did not statistically change
spatial learning deficit in Morris water maze (Tau368 mice; dox-treated Tau368 mice, **p < 0.01, *p < 0.05): rescued; also recorded: significantly alleviated
spatial memory impairment in Morris water maze (Tau368 mice; dox-treated Tau368 mice, day 6, platform removed): rescued; also recorded: attenuated
number of entries into the target quadrant (Tau368 mice; [5]): increased
time staying in the target quadrant (Tau368 mice; [5]): increased
